Measurements taken from patent US20220288115A1, “ORAL DISODIUM PYR[…] USE IN REDUCING CALCIFICATION” (priority 2019, published 2022).

Tests used:
[1] = human subjects
Description: FIG. 1: Plasma bioavailability of PPi after oral disodium PPi and after oral tetrasodium PPI. Results of different subjects (#) are shown, as well as AUC and AUC/mg PPi.
In this experiment PPI bioavailability was compared between tetrasodium PPi and disodium PPi in different human subjects (as indicated by # in FIG. 1).

[2] = single oral dose, PXE patient, fasting baseline 0.7 μmol/l (FIG. 2)
Description: Legend indicates the dose (per kg of body weight) and time of PPi consumption.

[3] = three months after the operation; 44 mg/kg per oral once daily
Description: As PXE patients have an increased risk of spontaneous gastrointestinal bleeding, aspirin medication was not used preoperatively. […] With the present therapy the patients absorbs extra 0.8 mg sodium and is informed to decrease daily salt intake.
Aspirin and PPi therapy were continued unaltered.

In the case of `O=P([O-])([O-])OP(=O)(O)O.[Na+].[Na+]` [disodium pyrophosphate], the “re-stenosis on computed tomography angiography (CTA)” value (one year postoperatively) is reported as “without signs of re-stenosis”, the “Walking Impairment Questionnaire (WIQ) score” value (one year postoperatively, baseline 0.19, 44 mg/kg per oral once daily) is reported as 0.89 and the “re-stenosis in the operated area on MRA” value (three months after the operation) is reported as “no re-stenosis”. For the same compound, the “PPi bioavailability in plasma after oral uptake” value ([1]; compared with oral tetrasodium PPi (FIG. 1)) was “much better bioavailable”, the “area under the curve (AUC) and calculated AUC/mg PPi of plasma PPi” value ([1]; oral, compared with tetrasodium PPi) was “higher” and the “time plasma pyrophosphate stayed in the normal fasting range of healthy controls (0.8-1.6 μmol/l)” value [2] was 180 min. The safety laboratory tests [3] was “normal”.
